The subject of one data set is LNCaP cells. The experiment in a line: Cell proliferation (DNA content, DAPI), LNCaP. In kind it is cell-based, human. Conditions: 3 nM DHT, seven days, PP 100 nM, HH 100 nM, BiC 1 μM. An excerpt: (§1) LN-AR cells were created by retroviral infection of a high-expressing AR vector into LNCaP cells, and proliferate independent of androgen in cell culture, unlike their parental line (Chen, C. D., et al., Molecular determinants of resistance to antiandrogen therapy. Nat Med, 2004. 10(1): p. 33-9). HEK293 cells were used as a control. Cells were transferred to charcoal-stripped media two days before they were split and plated in quadruplicate at a density of approximately 20,000 cells/well in 48-well plates. […] Media were changed every day, using a single preparation to ensure consistent compound concentrations. Proliferation was determined by measuring the DNA content of the cells in each well. Each day, the cells in four wells were fixed in 100% cold methanol, followed by staining for 5 min at RT with 0.2 ng/mL 4′,6-diamidino-2-phenylindole (DAPI) in PBS. The cells were washed once in PBS, then read on a fluorescence plate reader using 365/439 excitation/emission wavelengths. LAPC4 and LNCaP cells proliferated to a much greater degree in the presence of DHT, while LN-AR cells proliferated in the presence and absence of DHT.

A further data set has as its system LAPC4 cells. Description: Cell proliferation (DNA content, DAPI), LAPC4. Conditions: LAPC4, 3 nM DHT, seven days; PP 100 nM, HH 100 nM, BiC 1 μM. The data set is classed as cell-based, human.
From the text: as §1

For a further data set, the system named is LN-AR cells. The experiment in a line: Cell proliferation (DNA content, DAPI), LN-AR. In kind it is cell-based, human. Conditions: seven days, PP 100 nM, HH 100 nM, BiC 1 μM.
From the text: as §1

The test system of another data set is HEK293 cells. Description: Cell proliferation (DNA content, DAPI), HEK293 control. In kind it is cell-based. To be noted: HEK293, seven days; PP 100 nM, HH 100 nM, BiC 1 μM.
From the text: as §1

A further data set relates to prostate glands of mice. Description: Prostate weight in treated male mice. In kind it is in vivo. To be noted: 5 times per week for four weeks, BiC 100 mg/kg PO, PP 1 mg/kg IP, or the combination. The procedure:
FIG. 7. […] As a positive control, nine mice were treated with castration for four weeks. Prostate glands were harvested and wet weights determined. […] Error bars represent the standard error of the mean (S.E.M.).
Animals were treated 5 times per week for four weeks. At the end of the study period, animals were sacrificed and prostate tissue weighed. After weighing, the tissue was divided in half for pathological and genetic studies. […] (FIG. 7).

“Also recorded” adds a separate entry of the source.

As for `Cc1cc(/C=C/c2ccc3cc(N(C)C)ccc3[n+]2C)c(C)n1-c1ccccc1` [PP, pyrvinium pamoate], the “Inhibition of cell growth” value in the data set on LNCaP cells is listed as “able to inhibit the growth of all four cell lines; also recorded: exhibited growth-inhibitory properties”; with LAPC4 cells, “able to inhibit the growth of all four cell lines”. Besides, the “Inhibition of androgen-independent cell growth” value in the data set on LN-AR cells was “able to inhibit the growth of all four cell lines; also recorded: blocked growth”. Also, the “Non-specific growth inhibition of control cells” value in the data set on HEK293 cells is recorded as “Neither compound exhibited non-specific growth inhibition”. In addition, the “Reduction of prostate weight” value in the data set with prostate glands of mice is recorded as “did not produce a statistically significant effect; also recorded: did not significantly reduce prostate size”.
